How the values were obtained:
[1] = target: Human carbonic anhydrase II (hCA-II) (Homo sapiens (Human), UniProt P00918); experiment: Human carbonic anhydrase-II inhibition assay (absorbance, 4-nitrophenyl acetate substrate); assay type: biochemical; conditions: hCA II 8 nM, 4-NPA 2.5 mM, absorbance 340 nm, room temperature 1 hour; read-out: CA-II IC50
human ATX = human ATX (Homo sapiens (Human), UniProt Q13822); experiment: Human ATX enzyme inhibition assay (fluorescence quenching, MR121 substrate); assay type: biochemical; conditions: human His-tagged ATX 30 nM, MR121 substrate 1 μM, 30° C.; read-out: ATX IC50
Procedure, shortened: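 Human His-tagged ATX (30 nM final) preincubated 15 min at 30 °C with serially diluted compounds in Tris buffer pH 8.0 with Ca2+, Mg2+ and 0.01% Triton X-100. MR121/tryptophan-labelled substrate analogue (1 μM final) then added for 15 min at 30 °C; cleavage read by fluorescence dequenching.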

IC50 [1] [nM]	IC50 (human ATX) [nM]	SMILES
3.6	3	CC(C)(C)C(=O)Nc1cc2ccccc2nc1COC(=O)N1CC2=C(C1)CN(C(=O)c1ccc(S(N)(=O)=O)cc1F)C2 [Example 4.01, [3-(2,2-dimethylpropanoylamino)quinolin-2-yl]methyl 2-(2-fluoro-4-sulfamoylbenzoyl)-1,3,4,6-tetrahydropyrrolo[3,4-c]pyrrole-5-carboxylate]
17.6	7	CC(C)(C)C(=O)Nc1cc(C(F)(F)F)cnc1COC(=O)N1CC2=C(C1)CN(S(=O)(=O)c1ccc(S(N)(=O)=O)cc1F)C2 [Example 5.00, [3-(2,2-dimethylpropanoylamino)-5-(trifluoromethyl)pyridin-2-yl]methyl 5-(2-fluoro-4-sulfamoylphenyl)sulfonyl-1,3,4,6-tetrahydropyrrolo[3,4-c]pyrrole-2-carboxylate]
